{"source": "patent US7390873B2", "about": "“Antimicrobial cationic peptides” (University of British Columbia, priority 1995, dated 2008)", "key": {"[1]": {"tested_on": "human red blood cells", "test": "Lysis of red blood cells", "type": "cell-based", "method": "Freshly collected human blood was mixed with heparin and centrifuged to remove the buffy coat. The resulting erythrocytes were washed three times in 0.85% saline and stored at 4° C. Serial dilutions of the peptides in saline were prepared in round bottomed microtitre plates using 100 μl volumes. Red blood cells were diluted with saline to 1/25 of the packed volume of cells and 50 μl of red blood cells were added to each well. Plates were incubated while rocking at 37° C., and the concentration of peptide required for red blood cell lysis of more than 80% of cells (i.e., visible lysis) was determined at 4 and 24 hours (Table 7)."}, "[2]": {"tested_on": "all of the organisms tested", "test": "MIC assay, summary over the organisms tested", "type": "cell-based", "conditions": "range over organisms", "method": "(§1) Any of the art-known methods for measuring antimicrobial activity of peptides can be used in characterizing the peptides of the invention. In these examples, conventional methods were used to determine the minimal inhibitory concentration (MIC) of a peptide in a liquid medium (Amsterdam. Antibiotics in Laboratory Medicine, Williams and Wilkins, Baltimore (1991) 72-78). Briefly, overnight cultures of the test organisms (described below) were diluted to produce an inoculum containing approximately 10^4 to 10^5 organisms. The inoculum size was confirmed by counting the number of organisms on plates that were inoculated at the same time as the liquid cultures.\nThe concentration of peptide was measured by assaying for free amino groups using a dinitrophenylation assay, with polymyxin B serving as a standard. Doubling dilutions of peptide were performed (32 μg/ml-0.25 μg/ml) in 100 μl volumes in a 96-well mictrotiter plate, and all wells were subsequently inoculated with the diluted culture of the test organism. After 24 hours of incubation at 37° C., the assay was read. The MIC value is the concentration of peptide at which the growth of the test organism was reduced by 50%. The number of cells in the culture inoculum was calculated from the plate count after incubating the plate for 24 hours at 37° C. […]\nMIC values also were determined for various derivatives of indolicidin, CP-11, and CP-13. […]"}, "[3]": {"tested_on": "Candida albicans C627", "type": "cell-based", "conditions": "C627, 24 h"}, "[4]": {"tested_on": "E. coli UB1005", "type": "cell-based", "conditions": "UB1005, 24 h", "method": "as §1\n(§2) The concentration of peptide was measured by assaying for free amino groups using a dinitrophenylation assay, with polymyxin B serving as a standard. Doubling dilutions of peptide were performed (32 μg/ml-0.25 μg/ml) in 100 μl volumes in a 96-well mictrotiter plate, and all wells were subsequently inoculated with the diluted culture of the test organism. After 24 hours of incubation at 37° C., the assay was read. The MIC value is the concentration of peptide at which the growth of the test organism was reduced by 50%. The number of cells in the culture inoculum was calculated from the plate count after incubating the plate for 24 hours at 37° C. The medium used for cell culture and dilution in this assay was Luria broth (LB). Each peptide was tested three times against each organism, and the MIC values presented below are the mean values of the three experiments."}, "[5]": {"tested_on": "Staphylococcus epidermidis C621", "type": "cell-based", "conditions": "C621, 24 h", "method": "as §1, §2"}, "[6]": {"tested_on": "Staphylococcus aureus RN4220", "type": "cell-based", "conditions": "RN4220, 24 h", "method": "as §1, §2"}, "[7]": {"tested_on": "Pseudomonas aeruginosa K799", "type": "cell-based", "conditions": "K799, 24 h", "method": "as §1, §2"}, "[8]": {"test": "Dansyl polymyxin B (DPX) displacement assay", "type": "binding, P. aeruginosa", "conditions": "concentration at which 50% of the maximal DPX was displaced from the LPS; read-out: I50 of DPX displacement", "method": "Peptides that bind lipopolysaccharide are thought to potentially function as anti-endotoxins. The binding of various CP peptides to P. aeruginosa H103 lipopolysaccharide (LPS) was measured in a dansyl polymyxin B (DPX) displacement assay as described by Moore et al. (AAC, 26 (1986) 496-500). […] Purified LPS was saturated with DPX by titrating LPS with samples of DPX until maximum fluorescence was reached. Fluorescence was measured in a Perkin-Elmer 650-10S fluorescence spectrophotometer and displacement of DPX was measured as a decrease in fluorescence upon the addition of an antimicrobial peptide.\nEach peptides I50 value, which is the concentration at which 50% of the maximal DPX was displaced from the LPS, is shown. Also shown is the Imax value, which represents the maximum displacement of […] expressed as a percentage, where 100% indicates displacement of all bound DPX."}, "[9]": {"tested_on": "T-lymphocytes"}, "[10]": {"test": "Mortality after injection of peptide in mice", "type": "in vivo", "conditions": "200 μg peptide IP", "method": "The ability of indolicidin and variants to protect against LPS-induced endotoxemia was assessed in vivo. Mice (8-10 weeks old) were injected intraperitoneally (IP) with 20 mg D-galactosamine (Dgal) to sensitive them to LPS according to the model of Galanos (Galanos, C., M. A., Freudenberg and W. Reutter, 1979, Galactosamine sensitization to the lethal effects of endotoxin. Proc. Natl. Acad. Sci. USA 76:5939), followed by 200 μg peptide in 100 μl. Immediately afterwards LPS (10 μg) in 100 μl was injected. The mice were observed 24 hours after injections and survivors noted. […] When Dgal and LPS were also injected, that 200 μg of indolicidin reduced mortality reduced at 24 hours from 100% in controls to 60%."}}, "note": "Where a SMILES comes first, the peptide text is derived from it. Where no end group is shown, it is not given here."}
{"molecule": "CC[C@H](C)[C@H](N)C(=O)N[C@@H](CC(C)C)C(=O)N[C@@H](CCCCN)C(=O)N[C@@H](CCCCN)C(=O)N[C@@H](Cc1c[nH]c2ccccc12)C(=O)N1CCC[C@H]1C(=O)N[C@@H](Cc1c[nH]c2ccccc12)C(=O)N[C@@H](Cc1c[nH]c2ccccc12)C(=O)N1CCC[C@H]1C(=O)N[C@@H](Cc1c[nH]c2ccccc12)C(=O)N[C@@H](CCCNC(=N)N)C(=O)N[C@@H](CCCNC(=N)N)C(=O)N[C@@H](CCCCN)C(=O)OC", "note": "[CP-11C] (H-ILKKWPWWPWRRK-OMe)", "values": [{"measurement": "Lowest concentration causing lysis, 4 hours", "setting": "[1]", "result": ">128", "unit": "µg/mL"}, {"measurement": "Lowest concentration causing lysis, 24 hours", "setting": "[1]", "result": 64, "unit": "µg/mL"}, {"measurement": "MIC values for all of the organisms tested", "setting": "[2]", "result": "1 to 8", "unit": "µg/mL"}, {"measurement": "MIC C. albicans", "setting": "[3]", "result": 8, "unit": "µg/mL"}, {"measurement": "MIC E. coli", "setting": "[4]", "result": 2, "unit": "µg/mL"}, {"measurement": "MIC S. epidermidis", "setting": "[5]", "result": 1, "unit": "µg/mL"}, {"measurement": "MIC S. aureus", "setting": "[6]", "result": 8, "unit": "µg/mL"}, {"measurement": "MIC P. aeruginosa", "setting": "[7]", "result": 8, "unit": "µg/mL"}]}
{"molecule": "[Mg+2]", "note": "[Mg^2+ ions, Mg^2+]", "values": [{"measurement": "IC50", "setting": "[8]", "result": "~620", "unit": "µM"}]}
{"molecule": "ILKKWPWWPWRRK [CP-11]", "values": [{"measurement": "Toxicity to T-lymphocytes compared with indolicidin", "setting": "[9]", "result": "less toxic than indolicidin"}, {"measurement": "Lowest concentration causing lysis, 4 hours", "setting": "[1]", "result": ">128", "unit": "µg/mL"}, {"measurement": "Lowest concentration causing lysis, 24 hours", "setting": "[1]", "result": ">128", "unit": "µg/mL"}, {"measurement": "MIC C. albicans", "setting": "[3]", "result": 8, "unit": "µg/mL"}, {"measurement": "MIC E. coli", "setting": "[4]", "result": 4, "unit": "µg/mL"}, {"measurement": "MIC S. epidermidis", "setting": "[5]", "result": 2, "unit": "µg/mL"}, {"measurement": "MIC S. aureus", "setting": "[6]", "result": 16, "unit": "µg/mL"}, {"measurement": "MIC P. aeruginosa", "setting": "[7]", "result": 16, "unit": "µg/mL"}, {"measurement": "Mortality after injection of peptide", "setting": "[10]", "result": "did not cause mortality"}]}
